The record followed here is patent US8785439B2, “2,5,7-substituted oxazolopyrimidine derivatives” (Sanofi, priority 2010, dated 2014).

For the first experiment, the target named is T1, human Edg-1 receptor (Homo sapiens, UniProt P21453).
T1 construct: FLAG (N); expressed in transfected cells; membrane preparation
T1 sequence (P21453 whole entry): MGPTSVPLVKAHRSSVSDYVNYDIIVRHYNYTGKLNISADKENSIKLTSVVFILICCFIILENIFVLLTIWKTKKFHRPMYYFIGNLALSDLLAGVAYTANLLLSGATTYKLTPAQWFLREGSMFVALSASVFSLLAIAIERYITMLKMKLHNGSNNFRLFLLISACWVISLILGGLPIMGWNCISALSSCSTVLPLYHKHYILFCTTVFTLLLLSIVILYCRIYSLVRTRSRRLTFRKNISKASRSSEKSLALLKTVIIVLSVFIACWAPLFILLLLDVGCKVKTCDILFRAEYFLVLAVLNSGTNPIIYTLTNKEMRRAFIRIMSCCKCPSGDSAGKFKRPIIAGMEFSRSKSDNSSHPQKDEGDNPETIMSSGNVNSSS
Description: GTP-γ-S assay using human Edg-1 receptors (SPA, CHO Flp-In cell membrane preparation). Conditions: test compound at 10 μM; high control 10 μM S1P regarded as 100% activation; background-corrected; triplicate. Type of experiment: biochemical. Put shortly:
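Membranes from CHO Flp-In cells stably overexpressing N-terminally FLAG-tagged human Edg-1 were used in a scintillation-proximity GTP-γ-S binding assay to measure receptor activation by compounds.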
Turning to `CCCOc1nc(NC2CCC(C)CC2)nc2oc(-c3cc(F)ccc3Cl)nc12` (stereo not drawn) [Example 148, [2-(2-chloro-5-fluoro-phenyl)-7-propoxy-oxazolo[5,4-d]pyrimidin-5-yl]-(4-methyl-cyclohexyl)-amine], the “% Activation (Edg-1 receptor activation in percent of the activation by 10 μM S1P)” value worked out at 58%.

The experiment is the same for the next values; noted with them: test compound at 10 μM; high control 10 μM S1P regarded as 100% activation; background-corrected; triplicate; read-out: % Activation (Edg-1 receptor activation in percent of the activation by 10 μM S1P).
Consider `CCCOc1nc(Oc2ccc(CC)cc2)nc2oc(-c3cccc(C)c3)nc12` [Example 122, 5-(4-ethyl-phenoxy)-7-propoxy-2-(3-methyl-phenyl)-oxazolo[5,4-d]pyrimidine], for which the activation at 10 µM was 65%. Take `CCCOc1nc(Oc2cc(C)cc(C)c2C)nc2oc(-c3cccc(C)c3)nc12` [Example 123, 7-propoxy-2-(3-methyl-phenyl)-5-(2,3,5-trimethyl-phenoxy)-oxazolo[5,4-d]pyrimidine]: the activation at 10 µM is 65%.

For `CCCOc1nc(Oc2ccccc2C(C)C)nc2oc(-c3cccc(C)c3)nc12` [Example 124, 5-(2-isopropyl-phenoxy)-7-propoxy-2-(3-methyl-phenyl)-oxazolo[5,4-d]pyrimidine], the activation at 10 µM was determined as 112%.

For `CCCOc1nc(Oc2cccc(C(C)(C)C)c2)nc2oc(-c3cccc(C)c3)nc12` [Example 125, 5-(3-tert-butyl-phenoxy)-7-propoxy-2-(3-methyl-phenyl)-oxazolo[5,4-d]pyrimidine], the activation at 10 µM came to 61%. The same measure, in the same setting: for `CCCOc1nc(Oc2ccccc2CCC)nc2oc(-c3cccc(C)c3)nc12` [Example 126, 7-propoxy-5-(2-propyl-phenoxy)-2-(3-methyl-phenyl)-oxazolo[5,4-d]pyrimidine] the value was 121%. On the same count and under the same terms, under `CCCOc1nc(Oc2cc(F)cc(F)c2)nc2oc(-c3cccc(C)c3)nc12` [Example 127, 5-(3,5-difluoro-phenoxy)-7-propoxy-2-(3-methyl-phenyl)-oxazolo[5,4-d]pyrimidine] stands 110%. Same read-out and setting: for `CCCOc1nc(Oc2ccccc2C#N)nc2oc(-c3cccc(C)c3)nc12` [Example 128, 2-(7-propoxy-2-(3-methyl-phenyl)-oxazolo[5,4-d]pyrimidin-5-yloxy)-benzonitrile] the value was 105%. As for `CCCOc1nc(Oc2ccc(F)c(C(F)(F)F)c2)nc2oc(-c3cccc(C)c3)nc12` [Example 129, 5-(4-fluoro-3-trifluoromethyl-phenoxy)-7-propoxy-2-(3-methyl-phenyl)-oxazolo[5,4-d]pyrimidine], the activation at 10 µM amounted to 85%. Same read-out and setting: under `CCCOc1nc(Oc2ccc(F)c(C)c2)nc2oc(-c3cccc(C)c3)nc12` [Example 130, 5-(4-fluoro-3-methyl-phenoxy)-7-propoxy-2-(3-methyl-phenyl)-oxazolo[5,4-d]pyrimidine] stands 107%; under `CCCOc1nc(Oc2cccc(N(C)C)c2)nc2oc(-c3cccc(C)c3)nc12` [Example 131, dimethyl-[3-(7-propoxy-2-(3-methyl-phenyl)-oxazolo[5,4-d]pyrimidin-5-yloxy)-phenyl]-amine], 51%. In the case of `CCCOc1nc(Oc2c(C)cccc2C)nc2oc(-c3cccc(C)c3)nc12` [Example 132, 5-(2,6-dimethyl-phenoxy)-7-propoxy-2-(3-methyl-phenyl)-oxazolo[5,4-d]pyrimidine], the activation at 10 µM stood at 129%. On the same count and under the same terms, under `CCCOc1nc(Oc2cc(C)ccc2C)nc2oc(-c3cccc(C)c3)nc12` [Example 133, 5-(2,5-dimethyl-phenoxy)-7-propoxy-2-(3-methyl-phenyl)-oxazolo[5,4-d]pyrimidine] stands 92%; under `CCCOc1nc(Oc2ccc(C#N)c(F)c2)nc2oc(-c3cccc(C)c3)nc12` [Example 134, 2-fluoro-4-(7-propoxy-2-(3-methyl-phenyl)-oxazolo[5,4-d]pyrimidin-5-yloxy)-benzonitrile], 104%. As for `CCCOc1nc(Oc2ccc(C)cc2OC)nc2oc(-c3cccc(C)c3)nc12` [Example 135, 5-(2-methoxy-4-methyl-phenoxy)-7-propoxy-2-(3-methyl-phenyl)-oxazolo[5,4-d]pyrimidine], the activation at 10 µM is 1%. Regarding `CCCOc1nc(Oc2ccc(OC)c(OC)c2)nc2oc(-c3cccc(C)c3)nc12` [Example 136, 5-(3,4-dimethoxy-phenoxy)-7-propoxy-2-(3-methyl-phenyl)-oxazolo[5,4-d]pyrimidine], the activation at 10 µM stood at 91%.

As to `CCCOc1nc(Oc2cc(C)ccc2Cl)nc2oc(-c3cccc(C)c3)nc12` [Example 137, 5-(2-chloro-5-methyl-phenoxy)-7-propoxy-2-(3-methyl-phenyl)-oxazolo[5,4-d]pyrimidine], the activation at 10 µM stood at 89%. On the same count and under the same terms, for `CCCOc1nc(Oc2cc(F)cc(Cl)c2)nc2oc(-c3cccc(C)c3)nc12` [Example 138, 5-(3-chloro-5-fluoro-phenoxy)-7-propoxy-2-(3-methyl-phenyl)-oxazolo[5,4-d]pyrimidine] the value was 97%; for `CCCOc1nc(Oc2ccccc2SC)nc2oc(-c3cccc(C)c3)nc12` [Example 139, 5-(2-methylsulfanyl-phenoxy)-7-propoxy-2-(3-methyl-phenyl)-oxazolo[5,4-d]pyrimidine], 120%; for `CCCOc1nc(Oc2ccc(Cl)c(C)c2)nc2oc(-c3cccc(C)c3)nc12` [Example 140, 5-(4-chloro-3-methyl-phenoxy)-7-propoxy-2-(3-methyl-phenyl)-oxazolo[5,4-d]pyrimidine], 60%. For the compound `CCCOc1nc(Oc2ccccc2C(F)(F)F)nc2oc(-c3cccc(C)c3)nc12` [Example 141, 7-propoxy-2-(3-methyl-phenyl)-5-(2-trifluoromethyl-phenoxy)-oxazolo[5,4-d]pyrimidine], the activation at 10 µM was determined as 103%. For `CCCOc1nc(Oc2c(C)cc(C)cc2C)nc2oc(-c3cccc(C)c3)nc12` [Example 142, 7-propoxy-2-(3-methyl-phenyl)-5-(2,4,6-trimethyl-phenoxy)-oxazolo[5,4-d]pyrimidine], the activation at 10 µM is 50%.

As to `CCCOc1nc(Oc2cc(C(F)(F)F)ccc2Cl)nc2oc(-c3cccc(C)c3)nc12` [Example 143, 5-(2-chloro-5-trifluoromethyl-phenoxy)-7-propoxy-2-(3-methyl-phenyl)-oxazolo[5,4-d]pyrimidine], the activation at 10 µM is 52%.

Consider `CCCOc1nc(Oc2cc(F)cc(C(F)(F)F)c2)nc2oc(-c3cccc(C)c3)nc12` [Example 144, 5-(3-fluoro-5-trifluoromethyl-phenoxy)-7-propoxy-2-(3-methyl-phenyl)-oxazolo[5,4-d]pyrimidine], for which the activation at 10 µM was found to be 76%. Consider `CCCOc1nc(Oc2ccc(C(F)(F)F)cc2Cl)nc2oc(-c3cccc(C)c3)nc12` [Example 145, 5-(2-chloro-4-trifluoromethyl-phenoxy)-7-propoxy-2-(3-methyl-phenyl)-oxazolo[5,4-d]pyrimidine], for which the activation at 10 µM stood at 82%. Same read-out and setting: for `CCCOc1ccccc1Oc1nc(OCCC)c2nc(-c3cccc(C)c3)oc2n1` [Example 146, 7-propoxy-5-(2-propoxy-phenoxy)-2-(3-methyl-phenyl)-oxazolo[5,4-d]pyrimidine] the value was 126%; for `CCCOc1nc(N[C@H]2CCC[C@H](C)C2)nc2oc(-c3cc(F)ccc3Cl)nc12` [Example 147, [2-(2-chloro-5-fluoro-phenyl)-7-propoxy-oxazolo[5,4-d]pyrimidin-5-yl]-((1S,3S)-3-methyl-cyclohexyl)-amine], 63%; for `CCCOc1nc(NC2CCCCC2)nc2oc(-c3cc(F)ccc3Cl)nc12` [Example 149, [2-(2-chloro-5-fluoro-phenyl)-7-propoxy-oxazolo[5,4-d]pyrimidin-5-yl]-cyclohexyl-amine], 70%. As to `CCCOc1nc(Sc2ccccc2)nc2oc(-c3cc(F)ccc3Cl)nc12` [Example 150, 2-(2-chloro-5-fluoro-phenyl)-5-phenylsulfanyl-7-propoxy-oxazolo[5,4-d]pyrimidine], the activation at 10 µM was determined as 92%.

For `CCCOc1nc(Sc2cc(C)oc2C)nc2oc(-c3cc(F)ccc3Cl)nc12` [Example 151, 2-(2-chloro-5-fluoro-phenyl)-5-(2,5-dimethyl-furan-3-ylsulfanyl)-7-propoxy-oxazolo[5,4-d]pyrimidine], the activation at 10 µM was 66%. With `CCCOc1nc(OCC2(C)COC2)nc2oc(-c3cc(F)ccc3Cl)nc12` [Example 152, 2-(2-chloro-5-fluoro-phenyl)-5-(3-methyl-oxetan-3-ylmethoxy)-7-propoxy-oxazolo[5,4-d]pyrimidine], the activation at 10 µM came out at 46%. The same measure, in the same setting: for `CCCOc1nc(Sc2cc(F)ccc2C)nc2oc(-c3cc(F)ccc3Cl)nc12` [Example 153, 2-(2-chloro-5-fluoro-phenyl)-5-(5-fluoro-2-methyl-phenylsulfanyl)-7-propoxy-oxazolo[5,4-d]pyrimidine] the value was 108%; for `CCCOc1nc(OC2CCC(C(F)(F)F)CC2)nc2oc(-c3cc(F)ccc3Cl)nc12` (stereo not drawn) [Example 154, 2-(2-chloro-5-fluoro-phenyl)-7-propoxy-5-(4-trifluoromethyl-cyclohexyloxy)-oxazolo[5,4-d]pyrimidine], 87%. Same read-out and setting: under `CCCOc1nc(Sc2ccc(C)cn2)nc2oc(-c3cc(F)ccc3Cl)nc12` [Example 155, 2-(2-chloro-5-fluoro-phenyl)-5-(5-methyl-pyridin-2-ylsulfanyl)-7-propoxy-oxazolo[5,4-d]pyrimidine] stands 62%.

As for `CCCOc1nc(Sc2ccccc2)nc2oc(-c3ccc(Cl)c(Cl)c3)nc12` [Example 156, 2-(3,4-dichloro-phenyl)-5-phenylsulfanyl-7-propoxy-oxazolo[5,4-d]pyrimidine], the activation at 10 µM came to 40%.

For `CCCOc1nc(Oc2cc(F)ccc2C)nc2oc(-c3ccc(Cl)c(Cl)c3)nc12` [Example 157, 2-(3,4-dichloro-phenyl)-5-(5-fluoro-2-methyl-phenoxy)-7-propoxy-oxazolo[5,4-d]pyrimidine], the activation at 10 µM was determined as 92%.
